Assay results from patent US20110230476A1, “PI3 KINASE INHIBITORS AND USES THEREOF” (AVILA THERAPEUTICS, INC., priority 2009, published 2011).

molecular target: T1, PI3Kα (p110α/p85α) (Homo sapiens, UniProt P42336); test: HTRF assay, potency against active PI3Kα; format: biochemical; conditions: HTRF; [ATP]=50 μM, [di-C8-PIP2]=10 μM; 30 min pre-incubation; read-out: PI3Kα Inhibition
T1 construct: purchased BPS Bioscience (San Diego, Calif.) or Millipore (Billerica, Mass.)
Procedure: Homogeneous Time Resolved Fluorescence (HTRF) Assay Protocol for Potency Assessment Against the Active Forms of PI3Kα, PI3Kβ, and PI3Kγ
The mechanics of the assay platform are best described by the vendor (Millipore, Billerica, Mass.) on their website at the following URL: www.millipore.com/coa/tech1/74jt4z.
Briefly, Stop solution (Stop A, #33-007 and Stop B, #33-009; 3:1 ratio) and Detection Mix (from DMC, #33-015 with DMA, #33-011 and DMB, #33-013; 18:1:1 ratio) were prepared as recommended by the manufacturer about 2 hrs prior to use. […] Lipid kinase reactions were started with the addition of 5 μL of ATP solution, mixed for 15 sec on a rotary plate shaker and incubated for 30-60 minutes at 25° C. Next, reactions were stopped with a 5 μL addition of Stop solution immediately followed by a 5 μL volume of Detection Mix. […] At the conclusion of each assay, the HTRF ratio from fluorescence emission values for each well was calculated and % Inhibition determined from averaged controls wells (+/−PI3K enzyme). % Inhibition values for each compound were then plotted against inhibitor concentration to estimate IC50 from log [Inhibitor] vs Response, Variable Slope model in GraphPad Prism from GraphPad Software (San Diego, Calif.).

T1 sequence (P42336 whole entry): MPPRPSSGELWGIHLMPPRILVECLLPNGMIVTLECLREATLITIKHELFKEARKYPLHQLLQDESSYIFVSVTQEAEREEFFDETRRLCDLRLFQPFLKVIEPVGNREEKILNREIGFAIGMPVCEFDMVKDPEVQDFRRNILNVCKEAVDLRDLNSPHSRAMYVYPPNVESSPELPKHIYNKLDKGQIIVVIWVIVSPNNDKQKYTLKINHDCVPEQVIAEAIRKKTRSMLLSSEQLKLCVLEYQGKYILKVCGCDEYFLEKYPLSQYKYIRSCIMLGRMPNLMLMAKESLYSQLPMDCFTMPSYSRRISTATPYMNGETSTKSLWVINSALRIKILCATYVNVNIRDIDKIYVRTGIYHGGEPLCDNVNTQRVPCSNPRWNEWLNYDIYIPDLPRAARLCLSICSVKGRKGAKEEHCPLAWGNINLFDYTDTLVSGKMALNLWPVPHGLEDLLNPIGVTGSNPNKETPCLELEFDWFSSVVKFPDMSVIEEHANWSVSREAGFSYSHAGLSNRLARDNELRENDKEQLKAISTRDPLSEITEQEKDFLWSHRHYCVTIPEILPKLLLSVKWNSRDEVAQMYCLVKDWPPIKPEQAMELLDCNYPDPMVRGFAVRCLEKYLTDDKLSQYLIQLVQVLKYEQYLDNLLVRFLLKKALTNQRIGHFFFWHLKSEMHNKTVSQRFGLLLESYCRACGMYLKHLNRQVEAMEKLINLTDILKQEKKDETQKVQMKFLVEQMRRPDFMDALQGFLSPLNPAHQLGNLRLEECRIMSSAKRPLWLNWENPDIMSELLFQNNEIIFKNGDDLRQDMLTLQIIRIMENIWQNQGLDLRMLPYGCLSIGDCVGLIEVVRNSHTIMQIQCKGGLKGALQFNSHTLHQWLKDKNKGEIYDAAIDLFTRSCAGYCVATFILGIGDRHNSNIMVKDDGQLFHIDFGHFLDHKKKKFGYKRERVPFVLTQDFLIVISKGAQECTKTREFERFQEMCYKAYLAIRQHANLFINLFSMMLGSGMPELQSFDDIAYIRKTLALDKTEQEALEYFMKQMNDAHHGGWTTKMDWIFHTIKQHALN
T1 sequence (P27986 whole entry partner): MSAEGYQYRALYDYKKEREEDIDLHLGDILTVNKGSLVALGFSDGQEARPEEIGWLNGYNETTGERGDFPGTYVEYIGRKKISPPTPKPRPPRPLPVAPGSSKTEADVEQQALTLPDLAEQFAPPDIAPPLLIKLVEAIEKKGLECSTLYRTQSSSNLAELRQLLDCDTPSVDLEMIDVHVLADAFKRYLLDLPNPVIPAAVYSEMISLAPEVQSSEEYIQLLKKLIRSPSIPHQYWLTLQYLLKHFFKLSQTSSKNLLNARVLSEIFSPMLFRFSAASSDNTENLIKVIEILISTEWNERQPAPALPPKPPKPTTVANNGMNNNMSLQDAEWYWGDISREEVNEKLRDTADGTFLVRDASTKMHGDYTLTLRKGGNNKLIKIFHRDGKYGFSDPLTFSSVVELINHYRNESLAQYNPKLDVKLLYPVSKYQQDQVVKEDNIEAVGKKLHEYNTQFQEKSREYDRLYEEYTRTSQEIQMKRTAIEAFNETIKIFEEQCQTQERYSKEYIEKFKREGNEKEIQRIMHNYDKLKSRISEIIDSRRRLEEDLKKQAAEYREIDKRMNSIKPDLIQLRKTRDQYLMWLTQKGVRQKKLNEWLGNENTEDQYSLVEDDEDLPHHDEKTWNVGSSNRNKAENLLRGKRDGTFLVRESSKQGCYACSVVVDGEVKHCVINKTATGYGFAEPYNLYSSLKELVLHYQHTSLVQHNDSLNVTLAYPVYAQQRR

Compound	IC50
CC(C)=CC(=O)C(F)(F)C(F)(F)C(=O)N1CCN(Cc2cc3nc(-c4cccc5[nH]ncc45)nc(N4CCOCC4)c3s2)CC1 [II-a-157, 1-(4-((2-(1H-indazol-4-yl)-4-morpholinothieno[3,2-d]pyrimidin-6-yl)methyl)piperazin-1-yl)-2,2,3,3-tetrafluoro-6-methylhept-5-ene-1,4-dione]	100 to 1000 nM
C/C(=C\c1ccccn1)C(=O)CCC(=O)N1CCN(Cc2cc3nc(-c4cccc5[nH]ncc45)nc(N4CCOCC4)c3s2)CC1 [II-a-167, (E)-1-(4-((2-(1H-indazol-4-yl)-4-morpholinothieno[3,2-d]pyrimidin-6-yl)methyl)piperazin-1-yl)-5-methyl-6-(pyridin-2-yl)hex-5-ene-1,4-dione]	100 to 1000 nM
C/C(=C\c1ccccc1)C(=O)CCC(=O)N1CCN(Cc2cc3nc(-c4cccc5[nH]ncc45)nc(N4CCOCC4)c3s2)CC1 [II-a-168, (E)-1-(4-((2-(1H-indazol-4-yl)-4-morpholinothieno[3,2-d]pyrimidin-6-yl)methyl)piperazin-1-yl)-5-methyl-6-phenylhex-5-ene-1,4-dione]	100 to 1000 nM
C/C(=C\c1ncc[nH]1)C(=O)CCC(=O)N1CCN(Cc2cc3nc(-c4cccc5[nH]ncc45)nc(N4CCOCC4)c3s2)CC1 [II-a-170, (E)-1-(4-((2-(1H-indazol-4-yl)-4-morpholinothieno[3,2-d]pyrimidin-6-yl)methyl)piperazin-1-yl)-6-(1H-imidazol-2-yl)-5-methylhex-5-ene-1,4-dione]	100 to 1000 nM
O=C(/C=C/c1cnc[nH]1)NCC12CCC(c3cc4nc(-c5cccc6[nH]ncc56)nc(N5CCOCC5)c4s3)(CC1)OC2 [II-a-177, (E)-N-((1-(2-(1H-indazol-4-yl)-4-morpholinothieno[3,2-d]pyrimidin-6-yl)-2-oxabicyclo[2.2.2]octan-4-yl)methyl)-3-(1H-imidazol-5-yl)acrylamide]	100 to 1000 nM

Second part, the compound after the results:

IC50	Compound
10 to 100 nM	CC(C)=CC(=O)CCC(=O)N1CC=C(c2cc3nc(-c4cnc(N)nc4)nc(N4CCOCC4)c3s2)CC1 [II-a-165, 1-(4-(2-(2-aminopyrimidin-5-yl)-4-morpholinothieno[3,2-d]pyrimidin-6-yl)-5,6-dihydropyridin-1(2H)-yl)-6-methylhept-5-ene-1,4-dione]
< 10 nM	CC(C)=CC(=O)CCCC(=O)N1CC=C(c2cc3nc(-c4cnc(N)nc4)nc(N4CCOCC4)c3s2)CC1 [II-a-166, 1-(4-(2-(2-aminopyrimidin-5-yl)-4-morpholinothieno[3,2-d]pyrimidin-6-yl)-5,6-dihydropyridin-1(2H)-yl)-7-methyloct-6-ene-1,5-dione]
< 10 nM	C=CC(=O)Nc1cccc(C(=O)N2CC=C(c3cc4nc(-c5cnc(N)nc5)nc(N5CCOCC5)c4s3)CC2)c1 [II-a-171, N-(3-(4-(2-(2-aminopyrimidin-5-yl)-4-morpholinothieno[3,2-d]pyrimidin-6-yl)-1,2,3,6-tetrahydropyridine-1-carbonyl)phenyl)acrylamide]
> 1000 nM	CC(C)=CC(=O)CCCC(=O)N1CC=C(c2cc3nc(-c4cnc(N)nc4)cc(C4=CCOCC4)c3s2)CC1 [II-g-4, 1-(4-(5-(2-aminopyrimidin-5-yl)-7-(3,6-dihydro-2H-pyran-4-yl)thieno[3,2-b]pyridin-2-yl)-5,6-dihydropyridin-1(2H)-yl)-7-methyloct-6-ene-1,5-dione]
> 1000 nM	C=CC(=O)Nc1ccc(C(=O)N2CC=C(c3cc4nc(-c5cnc(N)nc5)cc(C5=CCOCC5)c4s3)CC2)cc1 [II-g-5, N-(4-(4-(5-(2-aminopyrimidin-5-yl)-7-(3,6-dihydro-2H-pyran-4-yl)thieno[3,2-b]pyridin-2-yl)-1,2,3,6-tetrahydropyridine-1-carbonyl)phenyl)acrylamide]
100 to 1000 nM	CC(C)=CC(=O)CCC(=O)N1CCN(Cc2cc3nc(-c4cnc(N)nc4)cc(N4CCOCC4)c3s2)CC1 [II-g-7, 1-(4-((5-(2-aminopyrimidin-5-yl)-7-morpholinothieno[3,2-b]pyridin-2-yl)methyl)piperazin-1-yl)-6-methylhept-5-ene-1,4-dione]
